Data: patent US8703698B2, “Compositions and methods for treating atherosclerosis” (The University of Chicago, priority 2003, dated 2014)

B1: GFFSFVHEAFQGAGDMWRAYTDMKEANWKNSDKYFHARGNYDAAQRGPGGVWAAEKISD GREAFQEFFGRGHEDTIADQEANRHGRSGKDPNYYRPPGLPDKY (protein, listed as Mus musculis)
chain: GFFSFVHEAFQGAGDMWRAYTDMKEANWKNSDKYFHARGNYDAAQRGPGGVWAAEKISDGREAFQEFFGRGHEDTIADQEANRHGRSGKDPNYYRPPGLPDKY
notes: full length murine serum amyloid A isoform 2.1 purified from acute phase plasma

Experiments:
[1] = target: T1, acyl CoA:cholesterol acyl transferase (Mus musculus, UniProt Q61263); assay: Incorporation of [14C]oleate into cholesteryl ester in cholesterol-laden macrophages (ACAT activity); assay type: cell-based, murine; conditions: for relative acyl CoA:cholesterol acyl transferase activity: liposomes containing 0.5 μM synthetic peptide, 6 hour incubation, cholesterol-laden murine cells
T1 construct: host or cells: J774 mouse macrophages, cholesterol-loaded
T1 sequence (Q61263 1-540): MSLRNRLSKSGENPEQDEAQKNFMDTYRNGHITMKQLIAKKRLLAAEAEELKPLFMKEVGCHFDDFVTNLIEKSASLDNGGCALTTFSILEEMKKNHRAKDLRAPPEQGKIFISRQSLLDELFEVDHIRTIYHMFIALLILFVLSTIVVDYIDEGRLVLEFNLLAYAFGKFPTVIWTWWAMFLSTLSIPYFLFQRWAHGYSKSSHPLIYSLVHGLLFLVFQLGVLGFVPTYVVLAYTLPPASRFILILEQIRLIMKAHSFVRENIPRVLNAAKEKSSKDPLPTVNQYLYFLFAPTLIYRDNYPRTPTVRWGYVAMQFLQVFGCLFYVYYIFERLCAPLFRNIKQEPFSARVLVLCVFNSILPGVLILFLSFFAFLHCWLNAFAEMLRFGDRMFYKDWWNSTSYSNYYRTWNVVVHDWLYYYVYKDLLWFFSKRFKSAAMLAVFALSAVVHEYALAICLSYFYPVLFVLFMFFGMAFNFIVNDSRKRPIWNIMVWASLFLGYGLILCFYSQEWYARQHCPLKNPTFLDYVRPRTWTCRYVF

[2] = tested on: ApoE knockout mice; assay: Regression of aortic lesions in ApoE knockout mice on atherogenic diet; assay type: in vivo; conditions: for aortic lesions, area stained with Oil Red O, versus high fat diet controls (FIGS. 7A and 7B): liposomes intravenously once every four days for two weeks, 6 mg/kg, after four weeks atherogenic diet; for color of livers versus untreated mice: preliminary examination, ApoE knockout mice on atherogenic diet
Excerpt: In regression experiments, ApoE knockout mice were placed on an atherogenic diet as described in Example 11 for four weeks, following which they were divided into two groups. One group continued on the diet for an additional two weeks. The other group continued on the diet for the same period but also received once every four days liposomes containing a peptide corresponding to amino acids 1-20 of murine SAA2.1 (SEQ ID NO:1; Group B of FIG. 7A and Group hf+p1 of FIG. 7B) or liposomes containing a peptide corresponding to amino acids 74-103 of murine SAA2.1 (SEQ ID NO:4; Group D of FIG. 7A and Group hf+p4 of FIG. 7B). The control group received high fat diet alone with no liposomes (Group A of FIG. 7A and Group high fat of FIG. 7B). An additional group was placed on a normal mouse chow diet (Group C of FIG. 7A and Group low fat of FIG. 7B). A further additional Group receiving liposomes containing a peptide corresponding to amino acids 1-20 of murine SAA2.1 (SEQ ID NO:1) and liposomes containing a peptide corresponding to amino acids 74-103 of murine SAA2.1 (SEQ ID NO:4) is depicted in FIG. 7B and is referred to as hf+p1+p4. FIG. 7B is inclusive of data present in FIG. 7A as well as data from a subsequent experiment performed under the same conditions. After the two weeks, the mice were killed and their aortas were dissected and stained with Oil Red O. Data of FIG. 7A depict the area stained with Oil Red O indicative of the actual lipid positive area as a percentage of the total aortic area viewed. Data of FIG. 7B depict the area stained with Oil Red O as a percentage relative to the high fat diet group (100%).
The efficacy of SAA2.1 peptides in regression of atherosclerosis was examined. The peptides tested included SEQ ID NO:1 and SEQ ID NO:4. The peptides were injected intravenously once every four (4) days during atherogenic induction for a period of 2 weeks (i.e. four doses at 6 mg/kg).
To determine if these peptides cause regression of atherosclerosis, the animals were placed on an atherogenic diet (Paigen's Atherogenic Rodent Diet: Purina 5015 with cocoa butter, cholesterol and cholic acid (CI3002, Research Diets, Inc.)) for […], following which they were divided into two groups of 5 animals each. One group continued on the diet for an additional two weeks. […]
To assess the effects of the peptides on aortic atherosclerosis, at the termination of the experiment, the aorta was removed from the animals and opened longitudinally. The endothelial surface was stained with Oil Red O and the area occupied by lipid was measured by image analysis. Furthermore, histological sections of aorta were prepared for microscopic analysis and total lipids were isolated to measure the quantity of cholesterol per wet weight of tissue. […]

| Molecule | relative acyl CoA:cholesterol acyl transferase activity [1] | aortic lesions, area stained with Oil Red O, versus high fat diet controls (FIGS. 7A and 7B) [2] | color of livers versus untreated mice [2] | acyl CoA:cholesterol acyl transferase activity in intact cholesterol-laden macrophages ([1]; lipoproteins or protein liposomes, tissue culture) |
| --- | --- | --- | --- | --- |
| DTIADQEANRHGRSGKDPNYYRPPGLPDKY [SEQ ID NO:4, synthetic peptide, residues 74-103 of murine SAA2.1] | no significant effect | showed regression of aortic lesions | more normal reddish color | – |
| GFFSFVHEAFQGAGDMWRAY [SEQ ID NO:1, synthetic peptide, residues 1-20 of murine SAA2.1] | two-fold decrease | showed regression of aortic lesions | more normal reddish color | – |
| B1 | – | – | – | marked reduction of acyl CoA:cholesterol acyl transferase activity |
